We go through 3 compounds from patent US6602700B1, “Phenolic acid esterases, coding sequences and methods” (University of Georgia Research Foundation, Inc., priority 1998, dated 2003).

In the test the target is T1, FAE (Acetivibrio thermocellus, UniProt P10478).
T1 construct: made in house; host or cells: E. coli BL21(DE3)
Briefly: Inhibition of XynZ FAE by ferulic acid and sugars. It counts as biochemical, Clostridium thermocellum.

Molecules are shown by their SMILES.

T1 sequence (P10478 20-286): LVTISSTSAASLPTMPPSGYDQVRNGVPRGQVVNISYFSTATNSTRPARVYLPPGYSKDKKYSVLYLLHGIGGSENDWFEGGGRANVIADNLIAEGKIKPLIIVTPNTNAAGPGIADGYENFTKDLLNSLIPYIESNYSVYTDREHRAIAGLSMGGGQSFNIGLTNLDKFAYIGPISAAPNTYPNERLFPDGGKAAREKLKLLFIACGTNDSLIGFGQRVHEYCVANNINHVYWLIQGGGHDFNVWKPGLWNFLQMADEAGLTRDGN

In the case of `O=C[C@@H](O)[C@H](O)[C@H](O)CO` [arabinose], the “Inhibition of FAE” value is “not”. The result for `COc1cc(/C=C/C(=O)O)ccc1O` [ferulic acid] reads “inhibited”. To `O=C[C@H](O)[C@@H](O)[C@H](O)CO` [xylose] belongs “not”.
